Key:
Type in all cases: cell-based
human TRPC5 [1] = target: T1, human TRPC5 (Homo sapiens, UniProt Q9UL62); experiment: Automated patch clamp assay (QPatch), antagonist mode; conditions: HEK-TREx hTRPC5 cells; channel activated with Rosiglitazone 30 μM; normalised to ML-204 block; read-out: Qpatch Potency Range
T1 construct: expressed in transfected cells
T1 sequence (Q9UL62 1-973): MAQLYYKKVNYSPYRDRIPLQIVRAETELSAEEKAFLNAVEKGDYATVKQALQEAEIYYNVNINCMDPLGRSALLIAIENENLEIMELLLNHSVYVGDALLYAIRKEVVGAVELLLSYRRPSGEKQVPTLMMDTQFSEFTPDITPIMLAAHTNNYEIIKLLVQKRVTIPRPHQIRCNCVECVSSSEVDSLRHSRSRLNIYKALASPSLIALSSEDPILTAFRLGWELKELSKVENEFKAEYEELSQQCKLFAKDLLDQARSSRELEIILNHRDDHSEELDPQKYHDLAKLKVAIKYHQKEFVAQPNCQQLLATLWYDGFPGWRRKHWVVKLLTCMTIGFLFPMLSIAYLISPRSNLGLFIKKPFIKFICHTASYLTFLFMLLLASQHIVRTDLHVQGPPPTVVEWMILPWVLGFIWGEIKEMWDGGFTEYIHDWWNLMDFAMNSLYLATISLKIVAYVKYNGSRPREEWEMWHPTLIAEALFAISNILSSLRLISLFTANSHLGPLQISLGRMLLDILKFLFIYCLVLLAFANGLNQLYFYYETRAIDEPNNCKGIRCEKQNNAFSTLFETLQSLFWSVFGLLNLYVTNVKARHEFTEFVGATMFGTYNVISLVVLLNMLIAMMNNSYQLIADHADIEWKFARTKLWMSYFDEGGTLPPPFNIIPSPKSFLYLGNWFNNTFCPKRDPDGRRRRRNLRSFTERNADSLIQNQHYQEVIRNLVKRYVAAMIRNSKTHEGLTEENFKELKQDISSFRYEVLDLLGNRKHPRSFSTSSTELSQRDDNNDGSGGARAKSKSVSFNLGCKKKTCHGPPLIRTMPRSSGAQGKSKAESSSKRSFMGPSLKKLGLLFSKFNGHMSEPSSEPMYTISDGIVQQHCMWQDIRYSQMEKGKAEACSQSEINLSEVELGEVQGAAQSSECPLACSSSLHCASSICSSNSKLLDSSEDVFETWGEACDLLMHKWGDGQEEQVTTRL
Method: (§1) ICLN-1633 cells (HEK-TREx hTRPC5) expressing TRPC5 were generated as follows. Commercially available HekTrex-293 cells were seeded at 0.7×10^6 cells/well in a 1×6-well plate 24 hrs prior to transfection using 2 mL cell growth media containing no antibiotics (1× DMEM/high glucose (Hyclone #SH30022.02); 10% fetal bovine serum (Sigma) 2 mM sodium pyruvate, 10 mM HEPES). The human TRPC5 coding sequence (NM_012471 with a silent T478C mutation) was cloned into pcDNA5/TO (Invitrogen; Cat No. V103320) using hygromycin as the resistance gene and the plasmid (SEQ ID NO:1) propagated using T-Rex-293 cells (Invitrogen; Cat No. R71007) following manufacturer's directions. On day 2, 2 μg of plasmid DNA plus 6 μl of Xtreme-GENE HP reagent in Optimem (200 μl total volume) was prepared and incubated for 15 min at room temperature. This plasmid solution was then gently overlayed dropwise onto each well and the plate was gently swirled to mix complex with the media for approximately 30 seconds. Transfected cells were incubated at 37° C. in a 10% CO2 incubator for 24 hrs. The transfected cells were harvested and transferred into 2×150 mm dishes containing cell growth media with no antibiotics at 37° C.
The next day selection was initiated to generate a stable pool by adding cell growth media containing 150 μg/mL Hygromycin and 5 μg/mL Blasticidin and cells were allowed to grow. Media with the selection agent was changed every 1-2 days as needed to remove dead cells. After 7 days, the hygromycin concentration was reduced to 75 μg/mL and cells growth was allowed to continue.
Single clones were selected as follows. The stable pool was diluted to 10 cells/mL and seeded (100 μl/well) into 24×96 well plates (˜1 cell/well) and allowed to grow for 7 days in cell growth media. Fresh media (100 μl) was added and the cells allowed to grow for another 1-2 weeks and then stored frozen or used immediately.
The automated electrophysiological assay was carried out at room temperature. On the day of the experiment, TRPC5 cells were cultured according to our Standard Operating Procedure. Briefly, cells were harvested using TrypLE™ Express, re-suspended in serum free medium, added to the automated platform and used within 0.5-3 hours. Internal and external physiological solutions were freshly prepared prior to the assay. The external solution contained: 145 mM NaCl, 4 mM KCl, 2 mM CaCl2, 1 mM MgCl2, 10 mM HEPES, 10 mM glucose, pH 7.4 with NaOH and 310 mOsm/L. The internal solution contained 120 mM L-aspartic acid, 120 mM CsOH·H2O, 20 mM CsCl, 2 mM MgCl2, 8.8 mM CaCl2, 10 mM EGTA, 10 mM HEPES and 2 mM Na2ATP; pH 7.2 with CsOH and 330 mOsm/L. The free internal Ca^2+ concentration was buffered to 1 μM, according to the WCabuf software. The automated electrophysiological platform QPatch 16 from Sophion (Denmark) was used to carry out the compounds profiling. The series resistance and quality of seals were continuously monitored during the experiments. Data were analyzed using Sophion QPatch assay software 5.6 (Odense). Data were normalized using the maximum activation obtained during the pre-compound agonist application as the top value (1.0) and maximum inhibition induced by ML-204 as the bottom value (0.0). IC50 values were calculated using a least squares regression algorithm (Hill equation).
To monitor the ion currents, a voltage ramp from −100 mV to +100 mV, over 300 ms, was applied every 10 seconds, from a holding potential of −60 mV. Antagonist-mode: After recording for a minimum of 60 seconds control period, the EC60 concentration of the TRPC5 agonist, Rosiglitazone (30 μM), was applied to activate the channel. After reaching steady-state, co-application of increasing concentrations of test compound were applied followed by two applications of Rosiglitazone EC60 and a saturating concentration of the specific blocker ML-204 (100 μM).

human TRPC5 [2] = target: T1, human TRPC5; experiment: FLIPR calcium assay, inhibition of riluzole-activated TRPC5 calcium response; conditions: ICLN-1633 cells; riluzole 30 μM stimulation; Fluo-4 calcium response; read-out: Inhibitor Potency Range (FLIPR)
Method: as §1
(§2) Compounds were made up to, or supplied as a 10 mM stock solution generally using DMSO as the vehicle. 10-point dose response curves were generated using the Echo-550 acoustic dispenser. Compound source plates were made by serially diluting compound stocks to create 10 mM, 1 mM, and 0.1 mM solutions in DMSO into Echo certified LDV plates. The Echo then serially spotted 100% DMSO stock solutions into source dose response plates to generate a 4-fold dilution scheme. 100% DMSO was added to the spotted dose response plates to bring the final volume to 5 μl. 300 nl of the dose response stock plate was then spotted into pre-incubation and stimulation assay plates. 50 μl of pre-incubation buffer and 100 μl of stimulation buffer was then added to the plates resulting in a final assay test concentration range of 30 μM to 0.0001 μM with a final DMSO concentration of 0.3%.
(§3) Human ICLN-1633 cells expressing were plated onto 384 well, black poly-D-lysine-coated microplates and maintained in TRPC5 growth media the day prior to use for experiments. TRPC5 expression was induced by the application of 1 μg/mL tetracycline at the time of plating. Media was removed from the plates and 10 μl of 4 μM of Fluo-4 AM (mixed with equal volume of Pluronic F-127) in Earls's Balanced Salt Solution (EBSS) was added to the cells. Cells were incubated at room temperature, protected from light, for 60-90 minutes. After the incubation period, the dye was removed and replaced with 10 μl of EBSS. Cell, pre-incubation and stimulation plates were loaded onto the FLIPR-II and the assay was initiated. The FLIPR measured a 10 second baseline and then added 10 μl of 2× compounds (or controls). Changes in fluorescence were monitored for an additional 5 minutes. After the 5 minute pre-incubation, 20 μl of 2× riluzole (with 1× compound or controls) was added to the cell plate. The final riluzole stimulation concentration in the assay was 30 μM. After the riluzole addition, changes in fluorescence were monitored for an additional 5 minutes. Reduction in the riluzole-activated calcium response relative to control wells was reported as inhibition. A compound-mediated increase in the riluzole response relative to control riluzole response (no test agent present) with no enhancement of calcium entry during preincubation phase was reported as an agonist response.
Compound inhibition of TRPC5 calcium response was determined as follows. After the riluzole addition, fluorescence was monitored for a 5-minute period. For inhibition, the maximum relative fluorescence response (minus the control response of 1 μM of an internal control compound known to maximally block TRPC5 calcium response, the “REF INHIB” in the formula below) was captured and exported from the FLIPR. […]

human TRPC5 [3] = target: T1, human TRPC5; experiment: FLIPR calcium assay, compound activation (agonism) of TRPC5 calcium response; design: key to Agonist Potency Range (FLIPR): A=0.001-1 μM; B=1-10 μM; C=>1 μM; D=tested with a positive result for agonism, but EC50 not calculated; conditions: ICLN-1633 cells, Fluo-4 calcium response; for EC50: read-out: Agonist Potency Range (FLIPR)
Method: as §1, §2, §3
Compound activation (agonism) of TRPC5 calcium response was determined as follows. After the initial compound addition, fluorescence was monitored for 5 minutes. The maximum relative fluorescence response (minus the control response of EBSS buffer alone) is captured and exported from the FLIPR. Compound activation is calculated using the following formula: […]

Row | SMILES | IC50 (human TRPC5 [1]) | IC50 (human TRPC5 [2]) | Agonist Potency Range (FLIPR) (human TRPC5 [3]) | EC50 (human TRPC5 [3])
1 | CCCCn1c(Oc2cccc(F)c2)nc2c1C(=O)N(CCCO)C(=O)[C@@H]1CCCN21 (single isomer, unassigned) [Compound 24] | 1 to 1000 nM | 1 to 1000 nM | – | –
2 | CCCCn1c(Oc2cccc(F)c2)nc2c1C(=O)N(CCCO)C(=O)[C@H]1CCCN21 (single isomer, unassigned) [Compound 25] | – | > 10000 nM | D | –
3 | CN1C(=O)CN(CCCO)C(=O)c2c1nc(Oc1cccc(OC(F)(F)F)c1)n2Cc1ccc(Cl)cc1 [Compound 2, 1-[(4-chlorophenyl)methyl]-7-(3-hydroxypropyl)-4-methyl-2-[3-(trifluoromethoxy)phenoxy]-1H,4H,5H,6H,7H,8H-imidazo[4,5-e][1,4]diazepine-5,8-dione] | 1000 to 30000 nM | 1000 to 10000 nM | – | –
4 | CN1C(=O)CN(CC(F)(F)CO)C(=O)c2c1nc(Oc1cccc(OC(F)(F)F)c1)n2Cc1ccc(Cl)cc1 [Compound 11] | > 30000 nM | 1000 to 10000 nM | – | –
5 | O=C1c2c(nc(Oc3cccc(F)c3)n2Cc2ccc(Cl)cc2)N2CCC[C@@H]2C(=O)N1CCCO [Compound 27] | – | > 10000 nM | – | 1 to 1000 nM
6 | CC(C)Oc1nc2c(n1Cc1ccc(Cl)cc1)C(=O)N(CCCO)C(=O)[C@@H]1CCCN21 [Compound 28] | – | > 10000 nM | – | 1 to 1000 nM
7 | CC(C)Oc1nc2c(n1Cc1ccc(Cl)cc1)C(=O)N(CCCO)C(=O)[C@H]1CCCN21 [Compound 29] | – | > 10000 nM | – | 1000 to 10000 nM
8 | CCCOc1nc2c(n1Cc1ccc(Cl)cc1)C(=O)N(CCCO)C(=O)[C@H]1CCCN21 [Compound 30] | – | > 10000 nM | – | 1000 to 10000 nM
9 | CCCOc1nc2c(n1Cc1ccc(Cl)cc1)C(=O)N(CCCO)C(=O)[C@@H]1CCCN21 [Compound 31] | – | > 10000 nM | – | 1 to 1000 nM
